# Test results published in patent publication US10221152B2 (priority 2013, dated 2019).
# Structures can show the parent of a compound that is named as a salt. Where two headings read alike, the source gives them in different places.
# Experiments:
# influenza virus (H1N1) = experiment: organism not typed; assay type: cell-based, Influenza A virus
# influenza virus (H3N2) = experiment: organism not typed; assay type: cell-based, Influenza A virus; settings: for EC50: read-out: H3N2 EC50
# [1] = tested on: Influenza A/WSN/33 (H1N1); experiment: microbe, parasite or virus in culture; assay type: cell-based, Influenza A virus; settings: for EC50: read-out: H1N1 WSN EC50
# H1N1 WSN viral strain = tested on: H1N1 WSN viral strain; design: species or system BALB/c mice; settings: mouse, in vivo, po
smiles,measurement,setting,value
"COc1c(C)c2c(c(O)c1C/C=C(\C)CCC(=O)OCCN1CCOCC1)C(=O)OC2 [MPM, 2-morpholinoethyl(E)-6-(1,3-dihydro-4-hydroxy-6-methoxy-7-methyl-3-oxo-5-isobenzofuranyl)-4-methyl-4-hexenoate]",survival rate in MDCK cells,influenza virus (H1N1),75%
same,MIC,"influenza virus (H1N1); read-out: Minimal Inhibitory Concentration (MIC), H1N1",0.195 µg/mL
same,EC50,influenza virus (H3N2),1.56 µg/mL
same,MIC,"influenza virus (H3N2); read-out: Minimal Inhibitory Concentration (MIC), H3N2",1.56 µg/mL
same,antiviral activity against WSN influenza virus,[1],active
same,"cell survival (MTT), D + V",[1],++++ (key: 0˜25% cell survival is recorded as +/−; 25˜50% cell survival is recorded as +; 50˜75% cell survival is recorded as ++; 75˜100% cell survival is recorded as +++; >100% cell survival is recorded as ++++)
same,EC50,[1]; Influenza A virus,0.098 µg/mL
same,MIC,"[1]; Influenza A virus, read-out: Minimal Inhibitory Concentration (MIC), WSN",0.097 µg/mL
same,toxicity to cells,MDCK cells,nontoxic to cells
"COc1c(C)c2c(c(O)c1C/C=C(\C)CCC(=O)OCCN1CCOCC1)C(=O)OC2 [MPM-N, mycophenolate mofetil hydrochloride]","Minimal Inhibitory Concentration (MIC), WSN",[1]; hydrochloride,0.0488 µg/mL
same,survival rate of mice,H1N1 WSN viral strain,23.3%
"NC(=O)c1ncn([C@@H]2O[C@H](CO)[C@@H](O)[C@H]2O)n1 [Ribavirin, reference compound]",EC50,influenza virus (H3N2),12.5 µg/mL
same,EC50,[1]; Influenza A virus,3.12 µg/mL
CCOC(=O)C1=C[C@@H](OC(CC)CC)[C@H](NC(C)=O)[C@@H](N)C1 [Tamiflu],survival rate of mice,H1N1 WSN viral strain,100%
same,survival rate of mice,H1N1 WSN viral strain; 0.1 mg/kg,46.7%
